Measurements: patent publication US7598245B2 (Vertex Pharmaceuticals Incorporated, priority 2003, dated 2009)

Assays:
Type in all cases: biochemical
CDK-2/Cyclin A = target: T1, CDK-2/Cyclin A (Homo sapiens, UniProt P24941); assay: Inhibition of CDK-2, coupled enzyme assay; details: 100 μM ATP, 30° C.
T1 construct: 25 nM CDK-2/Cyclin A
Procedure: Compounds are screened for their ability to inhibit CDK-2/Cyclin A using a standard coupled enzyme assay [Fox et al. Protein Sci. 1998, 7, 2249]. Reactions were carried out in 100 mM HEPES (pH 7.5), 10 mM MgCl2, 25 mM NaCl, 1 mM DTT and 1.5% DMSO. Final substrate concentrations in the assay are 100 μM ATP (Sigma chemicals) and 100 μM peptide (American Peptide, Sunnyvale, Calif.). Assays are carried out at 30° C. and 25 nM CDK-2/Cyclin A. Final concentrations of the components of the coupled enzyme system are 2.5 mM phosphoenolpyruvate, 350 μM NADH, 30 μg/ml pyruvate kinase and 10 μg/ml lactate dehydrogenase.
An assay stock buffer solution is prepared containing all of the reagents listed above, with the exception of CDK-2/Cyclin A, DTT and the test compound of interest. 56 μl of the test reaction is placed in a 384 well plate followed by addition of 1 μl of 2 mM DMSO stock containing the test compound (final compound concentration 30 μM). The plate is preincubated for ˜10 minutes at 30° C. and the reaction initiated by addition of 10 μl of enzyme (final concentration 25 nM). Rates of reaction are obtained using a BioRad Ultramark plate reader (Hercules, Calif.) over a 5 minute read time at 30° C. Ki values are determined according to standard methods.

human Src kinase = target: T2, human Src kinase (Homo sapiens, UniProt P12931); assay: Src inhibition assay B: spectrophotometric (uv-vis) coupled enzyme assay; details: 100 μM ATP
T2 construct: 25 nM of recombinant human Src kinase
T2 sequence (P12931 whole entry): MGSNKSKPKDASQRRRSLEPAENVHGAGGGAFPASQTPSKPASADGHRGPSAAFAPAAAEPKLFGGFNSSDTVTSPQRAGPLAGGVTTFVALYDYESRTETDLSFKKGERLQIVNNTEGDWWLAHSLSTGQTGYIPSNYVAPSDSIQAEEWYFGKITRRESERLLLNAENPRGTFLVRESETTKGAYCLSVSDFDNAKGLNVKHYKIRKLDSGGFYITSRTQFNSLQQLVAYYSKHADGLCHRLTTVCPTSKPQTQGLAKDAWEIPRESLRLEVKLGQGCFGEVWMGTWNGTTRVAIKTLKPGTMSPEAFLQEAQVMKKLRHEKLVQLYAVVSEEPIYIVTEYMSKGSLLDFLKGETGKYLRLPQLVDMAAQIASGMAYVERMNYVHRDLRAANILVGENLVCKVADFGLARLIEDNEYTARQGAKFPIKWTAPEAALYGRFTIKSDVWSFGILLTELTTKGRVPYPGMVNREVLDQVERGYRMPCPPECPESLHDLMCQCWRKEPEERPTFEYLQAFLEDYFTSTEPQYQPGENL
Procedure: The compounds are evaluated as inhibitors of human Src kinase using either a radioactivity-based assay or spectrophotometric assay.
Src Inhibition Assay B: Spectrophotometric Assay
The ADP produced from ATP by the human recombinant Src kinase-catalyzed phosphorylation of poly Glu-Tyr substrate is quantified using a coupled enzyme assay [Fox et al. Protein Sci. 1998, 7, 2249]. In this assay one molecule of NADH is oxidised to NAD for every molecule of ADP produced in the kinase reaction. The disappearance of NADH is conveniently followed at 340 nm.
The following are the final concentrations of the assay components: 0.025 M HEPES (pH 7.6), 10 mM MgCl2, 2 mM DTT, 0.25 mg/ml poly Glu-Tyr, and 25 nM of recombinant human Src kinase. Final concentrations of the components of the coupled enzyme system are 2.5 mM phosphoenolpyruvate, 200 μM NADH, 30 μg/ml pyruvate kinase and 10 μg/ml lactate dehydrogenase.
In a typical assay, all the reaction components with the exception of ATP are pre-mixed and aliquoted into assay plate wells. Inhibitors dissolved in DMSO are added to the wells to give a final DMSO concentration of 2.5%. The assay plate is incubated at 30° C. for 10 min before initiating the reaction with 100 μM ATP. The absorbance change at 340 nm with time, the rate of the reaction, is monitored on a molecular devices plate reader. The data of rate as a function of the inhibitor concentration is fitted to competitive inhibition kinetics model to get the Ki for the compound.

JAK-3 = target: T3, JAK-3 (Homo sapiens, UniProt P52333); assay: JAK3 inhibition assay (ELISA, Poly (Glu, Ala, Tyr) coated plates); details: 2 μM ATP
T3 sequence (P52333 1-1124): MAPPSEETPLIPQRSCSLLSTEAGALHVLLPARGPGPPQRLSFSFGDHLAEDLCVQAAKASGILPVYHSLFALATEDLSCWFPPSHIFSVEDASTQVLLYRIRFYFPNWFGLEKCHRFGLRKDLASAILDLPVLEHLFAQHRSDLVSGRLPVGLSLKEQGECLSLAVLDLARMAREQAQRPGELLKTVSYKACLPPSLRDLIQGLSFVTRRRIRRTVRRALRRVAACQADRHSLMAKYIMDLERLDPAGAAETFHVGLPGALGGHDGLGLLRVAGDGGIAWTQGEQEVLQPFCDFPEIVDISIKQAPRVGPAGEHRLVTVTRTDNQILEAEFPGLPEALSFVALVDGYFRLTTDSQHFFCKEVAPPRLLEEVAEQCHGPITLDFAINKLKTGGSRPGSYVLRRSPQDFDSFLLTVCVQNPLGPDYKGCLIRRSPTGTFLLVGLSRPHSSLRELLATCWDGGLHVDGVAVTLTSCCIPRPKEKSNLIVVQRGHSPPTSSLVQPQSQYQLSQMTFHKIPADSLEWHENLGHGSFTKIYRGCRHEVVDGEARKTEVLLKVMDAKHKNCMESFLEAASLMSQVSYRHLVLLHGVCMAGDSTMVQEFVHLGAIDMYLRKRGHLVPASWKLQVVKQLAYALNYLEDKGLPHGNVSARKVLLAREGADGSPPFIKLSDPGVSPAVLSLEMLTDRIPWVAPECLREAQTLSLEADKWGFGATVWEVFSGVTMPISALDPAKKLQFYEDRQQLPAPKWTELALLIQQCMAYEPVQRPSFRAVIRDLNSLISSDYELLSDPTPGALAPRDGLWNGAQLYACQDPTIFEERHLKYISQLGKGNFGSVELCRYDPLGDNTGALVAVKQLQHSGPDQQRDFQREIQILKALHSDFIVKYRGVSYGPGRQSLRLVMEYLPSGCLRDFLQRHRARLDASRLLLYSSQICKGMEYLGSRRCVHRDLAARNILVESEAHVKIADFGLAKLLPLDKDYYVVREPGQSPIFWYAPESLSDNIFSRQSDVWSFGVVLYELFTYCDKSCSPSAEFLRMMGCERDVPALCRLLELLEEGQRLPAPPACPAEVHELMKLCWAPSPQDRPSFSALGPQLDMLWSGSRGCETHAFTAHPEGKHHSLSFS
Procedure: Compound inhibition of JAK was assayed by the method described by G. R. Brown, et al, Bioorg. Med. Chem. Lett. 2000, vol. 10, pp 575-579 in the following manner. Into Maxisorb plates, previously coated at 4° C. with Poly (Glu, Ala, Tyr) 6:3:1 then washed with phosphate buffered saline 0.05% and Tween-(PBST), was added 2 μM ATP, 5 mM MgCl2, and a solution of compound in DMSO. The reaction was started with JAK enzyme and the plates incubated for 60 minutes at 30° C. The plates were then washed with PBST, 100 μL HRP-Conjugated 4G10 antibody was added, and the plate incubated for 90 minutes at 30° C. The plate was again washed with PBST, 100 μL TMB solution is added, and the plates were incubated for another 30 minutes at 30° C. Sulfuric acid (100 μL of 1M) was added to stop the reaction and the plate is read at 450 nm to obtain the optical densities for analysis to determine Ki values.

Compound | Ki (CDK-2/Cyclin A) [nM] | Ki (human Src kinase) [nM] | Ki (JAK-3) [nM]
COc1cc(Nc2ncn(-c3ccccc3)n2)cc(OC)c1OC [Compound I-42] | > 1000 | < 500 | 10 to 1000
COc1cc(Nc2ncn(-c3ccc(C#N)cc3)n2)cc(OC)c1OC [Compound I-43] | 500 to 1000 | < 500 | 10 to 1000
c1ccc(-n2cnc(Nc3ccc4c(c3)OCCO4)n2)cc1 [Compound I-44] | > 1000 | 500 to 1000 | > 1000
CCOc1cccc(Nc2ncn(-c3ccccc3)n2)c1 [Compound I-45] | > 1000 | < 500 | > 1000
CC(C)Oc1cccc(Nc2ncn(-c3ccccc3)n2)c1 [Compound I-46] | > 1000 | > 1000 | > 1000
CCOc1ccc(Nc2ncn(-c3ccccc3)n2)cc1 [Compound I-47] | > 1000 | > 1000 | > 1000
c1ccc(Nc2ncn(-c3ccnc(N4CCCCC4)c3)n2)cc1 [Compound I-49, phenyl-[1-(3,4,5,6-tetrahydro-2H-[1,2′]bipyridinyl-4′-yl)-1H-[1,2,4]triazol-3-yl]-amine] | < 500 | < 500 | 10 to 1000
c1ccc(Nc2ncn(-c3ccnc(NC4CCCCC4)c3)n2)cc1 [Compound I-50] | < 500 | < 500 | 10 to 1000
CN(CCO)c1cc(-n2cnc(Nc3ccccc3)n2)ccn1 [Compound I-51] | < 500 | > 1000 | 10 to 1000
c1ccc(Nc2ncn(-c3ccnc(N4CCCCCCC4)c3)n2)cc1 [Compound I-52] | < 500 | < 500 | 10 to 1000
CN(C)CCCN(C)c1cc(-n2cnc(Nc3ccccc3)n2)ccn1 [Compound I-53] | > 1000 | > 1000 | > 1000
CCN(CCO)c1cc(-n2cnc(Nc3ccccc3)n2)ccn1 [Compound I-54] | < 500 | < 500 | 10 to 1000
CN(Cc1ccccc1)c1cc(-n2cnc(Nc3ccccc3)n2)ccn1 [Compound I-55] | < 500 | 500 to 1000 | 10 to 1000
CC1CCCN1c1cc(-n2cnc(Nc3ccccc3)n2)ccn1 (stereo not drawn) [Compound I-56] | < 500 | 500 to 1000 | 10 to 1000
CN(Cc1cccnc1)c1cc(-n2cnc(Nc3ccccc3)n2)ccn1 [Compound I-57] | < 500 | 500 to 1000 | 10 to 1000
CCCN(CCO)c1cc(-n2cnc(Nc3ccccc3)n2)ccn1 [Compound I-58] | < 500 | < 500 | 10 to 1000
COCCN(C)c1cc(-n2cnc(Nc3ccccc3)n2)ccn1 [Compound I-59, (2-methoxy-ethyl)-methyl-[4-(3-phenylamino-[1,2,4]triazol-1-yl)-pyridin-2-yl]-amine] | < 500 | > 1000 | 10 to 1000

Compound | Ki (CDK-2/Cyclin A) [nM] | Ki (human Src kinase) [nM] | Ki (JAK-3) [nM]
CCN(CC)CCNc1cc(-n2cnc(Nc3ccccc3)n2)ccn1 [Compound I-60] | > 1000 | > 1000 | > 1000
CN1C(C)(C)CC(Nc2cc(-n3cnc(Nc4ccccc4)n3)ccn2)CC1(C)C [Compound I-61] | 500 to 1000 | < 500 | > 1000
CC(C)CCN(C)c1cc(-n2cnc(Nc3ccccc3)n2)ccn1 [Compound I-62, methyl-(3-methyl-butyl)-[4-(3-phenylamino-[1,2,4]triazol-1-yl)-pyridin-2-yl]-amine] | < 500 | 500 to 1000 | 10 to 1000
O=c1[nH]c2ccccc2n1C1CCN(c2cc(-n3cnc(Nc4ccccc4)n3)ccn2)CC1 [Compound I-63] | > 1000 | > 1000 | > 1000
O=C(C1CCCO1)N1CCN(c2cc(-n3cnc(Nc4ccccc4)n3)ccn2)CC1 (stereo not drawn) [Compound I-64] | > 1000 | > 1000 | > 1000
OC[C@H]1CCCN(c2cc(-n3cnc(Nc4ccccc4)n3)ccn2)C1 [Compound I-65] | < 500 | < 500 | 10 to 1000
CC(=O)N1CCCN(c2cc(-n3cnc(Nc4ccccc4)n3)ccn2)CC1 [Compound I-66] | 500 to 1000 | > 1000 | 10 to 1000
CCC(=O)N1CCCN(c2cc(-n3cnc(Nc4ccccc4)n3)ccn2)CC1 [Compound I-67] | > 1000 | > 1000 | 10 to 1000
CCCC(=O)N1CCCN(c2cc(-n3cnc(Nc4ccccc4)n3)ccn2)CC1 [Compound I-68] | > 1000 | > 1000 | 10 to 1000
CC(C)C(=O)N1CCCN(c2cc(-n3cnc(Nc4ccccc4)n3)ccn2)CC1 [Compound I-69] | > 1000 | > 1000 | > 1000
CC(C)CC(=O)N1CCCN(c2cc(-n3cnc(Nc4ccccc4)n3)ccn2)CC1 [Compound I-70] | > 1000 | > 1000 | > 1000
COCC(=O)N1CCCN(c2cc(-n3cnc(Nc4ccccc4)n3)ccn2)CC1 [Compound I-71] | > 1000 | > 1000 | 10 to 1000
N#CCC(=O)N1CCCN(c2cc(-n3cnc(Nc4ccccc4)n3)ccn2)CC1 [Compound I-72] | < 500 | 500 to 1000 | 10 to 1000
c1ccc(Nc2ncn(-c3ccnc(N4CCCCCC4)c3)n2)cc1 [Compound I-73] | < 500 | < 500 | < 10
CC(=O)N1[C@H](C)CN(c2cc(-n3cnc(Nc4ccccc4)n3)ccn2)C[C@@H]1C [Compound I-74] | < 500 | < 500 | < 10
CCOC(=O)c1ccc(Nc2ncn(-c3ccnc(N4C[C@@H](C)N(C(C)=O)[C@@H](C)C4)c3)n2)cc1 [Compound I-75] | 500 to 1000 | < 500 | 10 to 1000
